Source: patent US20230151025A1, “SUBSTITUTED THIAZOLOPYRIDINES, SALTS THEREOF AND THEIR USE AS HERBICIDALLY ACTIVE SUBSTANCES” (Bayer Aktiengesellschaft, priority 2020, published 2023)

Legend:
Assay type in all cases: in vivo
[1] = tested on: Alopecurus myosuroides (ALOMY); assay: Herbicidal pre-emergence action (A), 1280 g/ha; conditions: visual grading after ca. 3 weeks vs untreated controls, 100% = plants have died off, 0% = as control plants
In short: (§1)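 Pre-emergence soil-surface spray, 600 l/ha water, 0.5% additive, WP or EC formulation. Sandy loam, double sowing per pot, greenhouse under optimum growth. Visual % damage at ~3 wk vs untreated; 100% = plants died off.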

[2] = tested on: Amaranthus retroflexus (AMARE); assay: Herbicidal pre-emergence action (A), 1280 g/ha; conditions: visual grading after ca. 3 weeks vs untreated controls
In short: as §1

[3] = tested on: Digitaria sanguinalis (DIGSA); assay: Herbicidal pre-emergence action (A), 1280 g/ha; conditions: visual grading after ca. 3 weeks vs untreated controls, 100% = plants have died off, 0% = as control plants
In short: as §1

[4] = tested on: Echinochloa crus-galli (ECHCG); assay: Herbicidal pre-emergence action (A), 1280 g/ha; conditions: visual grading after ca. 3 weeks vs untreated controls, 100% = plants have died off, 0% = as control plants
In short: as §1

[5] = tested on: Kochia scoparia (KCHSC; Bassia scoparia); assay: Herbicidal pre-emergence action (A), 1280 g/ha; conditions: visual grading after ca. 3 weeks vs untreated controls
In short: as §1

[6] = tested on: Lolium rigidum (LOLRI); assay: Herbicidal pre-emergence action (A), 1280 g/ha; conditions: visual grading after ca. 3 weeks vs untreated controls, 100% = plants have died off, 0% = as control plants
In short: as §1

[7] = tested on: Matricaria inodora (MATIN); assay: Herbicidal pre-emergence action (A), 1280 g/ha; conditions: visual grading after ca. 3 weeks vs untreated controls
In short: as §1

[8] = tested on: Poa annua (POAAN); assay: Herbicidal pre-emergence action (A), 1280 g/ha; conditions: visual grading after ca. 3 weeks vs untreated controls, 100% = plants have died off, 0% = as control plants
In short: as §1

[9] = tested on: Setaria viridis (SETVI); assay: Herbicidal pre-emergence action (A), 1280 g/ha; conditions: visual grading after ca. 3 weeks vs untreated controls
In short: as §1

[10] = tested on: Stellaria media (STEME); assay: Herbicidal pre-emergence action (A), 1280 g/ha; conditions: visual grading after ca. 3 weeks vs untreated controls
In short: as §1

[11] = tested on: Veronica persica (VERPE); assay: Herbicidal pre-emergence action (A), 1280 g/ha; conditions: visual grading after ca. 3 weeks vs untreated controls
In short: as §1

[12] = tested on: Abutilon theophrasti (ABUTH); assay: Herbicidal post-emergence action (B), 1280 g/ha; conditions: rated visually after about 3 weeks vs untreated controls
In short: (§2)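 Percent activity is a visual score taken about 3 weeks after treatment, relative to untreated plants, where 100% means the plants died and 0% means no difference from controls. Plants were sprayed on green parts at the one-leaf stage with an aqueous suspension or emulsion containing 0.5% additive at 600 L/ha.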

[13] = tested on: Alopecurus myosuroides (ALOMY); assay: Herbicidal post-emergence action (B), 1280 g/ha; conditions: rated visually after about 3 weeks vs untreated controls
In short: as §2

[14] = tested on: Amaranthus retroflexus (AMARE); assay: Herbicidal post-emergence action (B), 1280 g/ha; conditions: rated visually after about 3 weeks vs untreated controls
In short: as §2

[15] = tested on: Digitaria sanguinalis (DIGSA); assay: Herbicidal post-emergence action (B), 1280 g/ha; conditions: rated visually after about 3 weeks vs untreated controls
In short: as §2

[16] = tested on: Echinochloa crus-galli (ECHCG); assay: Herbicidal post-emergence action (B), 1280 g/ha; conditions: rated visually after about 3 weeks vs untreated controls
In short: as §2

[17] = tested on: Kochia scoparia (KCHSC; Bassia scoparia); assay: Herbicidal post-emergence action (B), 1280 g/ha
In short: as §2

[18] = tested on: Matricaria inodora (MATIN); assay: Herbicidal post-emergence action (B), 1280 g/ha; conditions: rated visually after about 3 weeks vs untreated controls
In short: as §2

[19] = tested on: Poa annua (POAAN); assay: Herbicidal post-emergence action (B), 1280 g/ha; conditions: rated visually after about 3 weeks vs untreated controls
In short: as §2

[20] = tested on: Setaria viridis (SETVI); assay: Herbicidal post-emergence action (B), 1280 g/ha; conditions: rated visually after about 3 weeks vs untreated controls
In short: as §2

[21] = tested on: Stellaria media (STEME); assay: Herbicidal post-emergence action (B), 1280 g/ha
In short: as §2

[22] = tested on: Veronica persica (VERPE); assay: Herbicidal post-emergence action (B), 1280 g/ha
In short: as §2

[23] = tested on: Alopecurus myosuroides (ALOMY); assay: Herbicidal pre-emergence action (C), 320 g/ha; conditions: ca. 3 weeks
In short: (§3)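 Pre-emergence soil-surface spray: WP/EC formulation in water plus 0.5% additive, 600 l/ha, applied over freshly sown, soil-covered seeds in sandy loam. Greenhouse, optimum conditions, ~3 weeks. Visual % damage vs untreated (100% = dead).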

[24] = tested on: Amaranthus retroflexus (AMARE); assay: Herbicidal pre-emergence action (C), 320 g/ha; conditions: ca. 3 weeks
In short: as §3

[25] = tested on: Echinochloa crus-galli (ECHCG); assay: Herbicidal pre-emergence action (C), 320 g/ha; conditions: ca. 3 weeks
In short: as §3

[26] = tested on: Lolium rigidum (LOLRI); assay: Herbicidal pre-emergence action (C), 320 g/ha; conditions: ca. 3 weeks
In short: as §3

[27] = tested on: Setaria viridis (SETVI); assay: Herbicidal pre-emergence action (C), 320 g/ha; conditions: ca. 3 weeks
In short: as §3

[28] = tested on: Digitaria sanguinalis (DIGSA); assay: Herbicidal pre-emergence action (C), 320 g/ha; conditions: ca. 3 weeks
Excerpt: Seeds of mono- and dicotyledonous weed plants and crop plants were sown, in plastic or organic planting pots, in sandy loam and covered with soil. The compounds according to the invention, formulated in the form of wettable powders (WP) or as emulsifiable concentrates (EC), were applied to the surface of the covering soil as aqueous suspension or emulsion, with the addition of 0.5% of an additive, at an application rate of 600 l of water/ha (converted).
Following treatment, the pots were placed in a greenhouse and kept under optimum growth conditions for the test plants. The visual grading of the damage to the test plants was carried out after ca. 3 weeks in comparison to untreated controls (herbicidal effect in percent (%): 100% effect=plants have died off, 0% effect=as control plants).
Tables C1 to C13 below show the effects of selected compounds of the general formula (I) according to table 1 on various harmful plants and an application rate corresponding to 320 g/ha obtained by the experimental procedure mentioned above.

[29] = tested on: Abutilon theophrasti (ABUTH); assay: Herbicidal post-emergence action (D), 320 g/ha; conditions: ca. 3 weeks
In short: (§4)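 Post-emergence greenhouse test. Sandy loam; spray at single-leaf stage (2–3 wk after sowing); WP or EC in water + 0.5% additive, 600 l/ha. Visual rating ~3 wk post-spray, % effect vs untreated (0 = control, 100 = dead).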

[30] = tested on: Alopecurus myosuroides (ALOMY); assay: Herbicidal post-emergence action (D), 320 g/ha; conditions: ca. 3 weeks
In short: as §4

[31] = tested on: Amaranthus retroflexus (AMARE); assay: Herbicidal post-emergence action (D), 320 g/ha; conditions: ca. 3 weeks
In short: as §4

[32] = tested on: Echinochloa crus-galli (ECHCG); assay: Herbicidal post-emergence action (D), 320 g/ha; conditions: ca. 3 weeks
In short: as §4

[33] = tested on: Abutilon theophrasti (ABUTH); assay: Herbicidal pre-emergence action (C), 320 g/ha; conditions: ca. 3 weeks
In short: as §3

[34] = tested on: Veronica persica (VERPE); assay: Herbicidal pre-emergence action (C), 320 g/ha; conditions: ca. 3 weeks
In short: as §3

[35] = tested on: Polygonum convolvulus (POLCO); assay: Herbicidal post-emergence action (D), 320 g/ha; conditions: ca. 3 weeks
In short: as §4

[36] = tested on: Setaria viridis (SETVI); assay: Herbicidal post-emergence action (D), 320 g/ha; conditions: ca. 3 weeks
In short: as §4

[37] = tested on: Veronica persica (VERPE); assay: Herbicidal post-emergence action (D), 320 g/ha; conditions: ca. 3 weeks
In short: as §4

[38] = tested on: Matricaria inodora (MATIN); assay: Herbicidal pre-emergence action (C), 320 g/ha; conditions: ca. 3 weeks
In short: as §3

[39] = tested on: Viola tricolor (VIOTR); assay: Herbicidal pre-emergence action (C), 320 g/ha; conditions: ca. 3 weeks
In short: as §3

c1ccc(-c2ccc3scnc3n2)cc1 [Example I-010]
ALOMY, herbicidal effect in percent (%) [1]: 100%
herbicidal effect AMARE [2]: 90%
DIGSA, herbicidal effect in percent (%) [3]: 100%
ECHCG, herbicidal effect in percent (%) [4]: 100%
herbicidal effect KCHSC [5]: 90%
LOLRI, herbicidal effect in percent (%) [6]: 100%
herbicidal effect MATIN [7]: 100%
POAAN, herbicidal effect in percent (%) [8]: 100%
herbicidal effect SETVI [9]: 100%
herbicidal effect STEME [10]: 100%
herbicidal effect VERPE [11]: 90%
herbicidal activity ABUTH [12]: 100%
herbicidal activity ALOMY [13]: 100%
herbicidal activity AMARE [14]: 100%
herbicidal activity DIGSA [15]: 100%
herbicidal activity ECHCG [16]: 90%
herbicidal effect KCHSC [17]: 100%
herbicidal activity MATIN [18]: 100%
herbicidal activity POAAN [19]: 100%
herbicidal activity SETVI [20]: 100%
herbicidal effect STEME [21]: 100%
herbicidal effect VERPE [22]: 100%
herbicidal effect ALOMY [23]: 100%
herbicidal effect AMARE [24]: 90%
herbicidal effect ECHCG [25]: 100%
herbicidal effect LOLRI [26]: 100%
herbicidal effect SETVI [27]: 100%
herbicidal effect DIGSA [28]: 100%
herbicidal effect ABUTH [29]: 80%
herbicidal effect ALOMY [30]: 90%
herbicidal effect AMARE [31]: 80%
herbicidal effect ECHCG [32]: 90%

Clc1cc2scnc2nc1-c1sccc1Cl [Example I-189]
ALOMY, herbicidal effect in percent (%) [1]: 90%
herbicidal effect AMARE [2]: 90%
ECHCG, herbicidal effect in percent (%) [4]: 100%
herbicidal effect KCHSC [5]: 90%
LOLRI, herbicidal effect in percent (%) [6]: 90%
herbicidal effect MATIN [7]: 90%
POAAN, herbicidal effect in percent (%) [8]: 100%
herbicidal effect SETVI [9]: 100%
herbicidal effect STEME [10]: 90%
herbicidal effect VERPE [11]: 90%
herbicidal activity AMARE [14]: 90%
herbicidal activity ECHCG [16]: 100%
herbicidal effect KCHSC [17]: 90%
herbicidal activity POAAN [19]: 90%
herbicidal activity SETVI [20]: 90%
herbicidal effect STEME [21]: 90%
herbicidal effect VERPE [22]: 90%
herbicidal effect ABUTH [33]: 80%
herbicidal effect ALOMY [23]: 100%
herbicidal effect AMARE [24]: 80%
herbicidal effect ECHCG [25]: 100%
herbicidal effect SETVI [27]: 100%
herbicidal effect VERPE [34]: 80%
herbicidal effect ABUTH [29]: 80%
herbicidal effect ALOMY [30]: 90%
herbicidal effect ECHCG [32]: 90%
herbicidal effect POLCO [35]: 80%
herbicidal effect SETVI [36]: 90%
herbicidal effect VERPE [37]: 80%

CC(C)c1cc2scnc2nc1-c1ccccc1F [Example I-184]
ALOMY, herbicidal effect in percent (%) [1]: 90%
herbicidal effect AMARE [2]: 90%
ECHCG, herbicidal effect in percent (%) [4]: 100%
herbicidal effect KCHSC [5]: 90%
LOLRI, herbicidal effect in percent (%) [6]: 100%
herbicidal effect MATIN [7]: 90%
POAAN, herbicidal effect in percent (%) [8]: 100%
herbicidal effect SETVI [9]: 100%
herbicidal effect STEME [10]: 90%
herbicidal effect VERPE [11]: 90%
herbicidal activity AMARE [14]: 100%
herbicidal activity ECHCG [16]: 90%
herbicidal effect KCHSC [17]: 90%
herbicidal activity POAAN [19]: 90%
herbicidal effect STEME [21]: 90%
herbicidal effect VERPE [22]: 90%
herbicidal effect ALOMY [23]: 100%
herbicidal effect AMARE [24]: 90%
herbicidal effect ECHCG [25]: 100%
herbicidal effect LOLRI [26]: 100%
herbicidal effect MATIN [38]: 80%
herbicidal effect SETVI [27]: 100%
herbicidal effect VERPE [34]: 80%
herbicidal effect VIOTR [39]: 80%
herbicidal effect ALOMY [30]: 90%
herbicidal effect AMARE [31]: 80%
herbicidal effect ECHCG [32]: 80%
herbicidal effect POLCO [35]: 80%
herbicidal effect SETVI [36]: 90%
herbicidal effect VERPE [37]: 90%

CCc1cc2sc(OC)nc2nc1-c1ccccc1C [Example I-094]
herbicidal effect AMARE [2]: 100%
DIGSA, herbicidal effect in percent (%) [3]: 100%
herbicidal effect MATIN [7]: 100%
POAAN, herbicidal effect in percent (%) [8]: 100%
herbicidal effect SETVI [9]: 100%
herbicidal effect STEME [10]: 100%
herbicidal activity ABUTH [12]: 100%
herbicidal activity ALOMY [13]: 100%
herbicidal activity AMARE [14]: 100%
herbicidal activity DIGSA [15]: 100%
herbicidal activity ECHCG [16]: 100%
herbicidal effect KCHSC [17]: 100%
herbicidal activity MATIN [18]: 100%
herbicidal activity POAAN [19]: 100%
herbicidal activity SETVI [20]: 100%
herbicidal effect STEME [21]: 100%
herbicidal effect VERPE [22]: 100%
herbicidal effect ECHCG [25]: 80%
herbicidal effect ABUTH [29]: 80%
herbicidal effect VERPE [37]: 90%
